Assay results as given in US7351731B2, “Azole derivatives and methods for making the same” (Board of Governors for Higher Education, State of Rhode …, priority 2005, dated 2008).
Values after ≈ are worked out from the molar mass of the structure shown.

Legend:
C. albicans ATCC 14053 [1] = experiment: MIC microdilution susceptibility testing, C. albicans in SDB; type: cell-based, Candida albicans; details: 24-48 h, average of three experiments; for MIC: Candida albicans
Method: (§1) Microorganisnis. […] Stock cultures were kept on Sabouraud dextrose agar (SDA; Becton-Dickinson and Co., Sparks, Md.). Subcultures were prepared on SDA at 35-37° C. Suspension cultures were prepared by inoculation of single colonies in 7 ml of normal saline solution.
(§2) Test compounds were dissolved in DMSO (0.56 mg/ml) and stored at 0° C. Working dilutions were made in RPMI or SDB medium. […] The final maximum concentration of DMSO in the assays was 5% (v/v).
(§3) Microdilutions for control experiments with C. albicans, A. niger, and C. neoformans were the modified method of National Committee for Clinical Laboratory Standards (NCCLS) method as described by Galgiani and by the more recent NCCLS M27-A microdilution methods as described previously. Galgiani, J. N. Antimicrob. Agents Chemother. […] Reference method for broth dilution antifungal susceptibility testing for yeasts. Approval standard. […] 9; C. arballeira, N. M., et al. Arch. Pharm.-Pharm. […] Dilutions were prepared in 0.1 ml of RPMI or SDB; the inocula were either 10^4 C. albicans or C. neoformans cells or A. niger spores. The tubes were incubated for 24-48 h at 36±1° C., and turbidity was read visually.

C. albicans ATCC 14053 [2] = experiment: MIC microdilution susceptibility testing, C. albicans in RPMI; type: cell-based, Candida albicans; details: for MIC: Candida albicans
Method: as §1, §2, §3

C. neoformans ATCC 66031 = experiment: MIC microdilution susceptibility testing, C. neoformans in SDB; type: cell-based, Cryptococcus neoformans; details: SDB medium, 35-37° C., 24-48 h, average of three experiments; for MIC: Cryptococcus neoformans, ATCC66031
Method: as §1, §2, §3

A. niger ATCC 16404 = experiment: MIC microdilution susceptibility testing, A. niger in SDB; type: cell-based, Aspergillus niger; details: SDB medium, 35-37° C., 24-48 h, average of three experiments; for MIC: Aspergillus niger, ATCC16404
Method: as §1, §2, §3

[3] = ATCC14053, SDB medium pH 5.6, 35-37° C.
[4] = ATCC14053, pH 6.9, read-out: MIC C. albicans ATCC 14053, RPMI
[5] = ATCC14053, pH 5.6, SDB medium pH 5.6, 35-37° C.
[6] = ATCC14053, RPMI medium pH 6.9, 35-37° C., 24-48 h, average of three experiments, read-out: MIC C. albicans ATCC 14053, RPMI
[7] = RPMI medium pH 6.9, 35-37° C., 24-48 h, average of three experiments

Row | Compound | MIC (C. albicans ATCC 14053 [1]; [3]) | MIC (C. albicans ATCC 14053 [2]; [4]) | MIC (C. neoformans ATCC 66031) | MIC (A. niger ATCC 16404) | MIC (C. albicans ATCC 14053 [1]; [5]) | MIC (C. albicans ATCC 14053 [2]; [6]) | MIC C. albicans ATCC 14053, SDB (C. albicans ATCC 14053 [1]; SDB medium pH 5.6, 35-37° C.) | MIC C. albicans ATCC 14053, RPMI (C. albicans ATCC 14053 [2]; [7]) | MIC A. niger ATCC 16404, SDB (A. niger ATCC 16404) | MIC C. neoformans ATCC 66031, SDB (C. neoformans ATCC 66031)
1 | CCC(Br)C(=O)O (stereo not drawn) [2-Bromobutyric acid, reference compound] | > 513 µg/mL | 513 µg/mL (≈ 3070 µM) | > 513 µg/mL |  |  |  |  |  |  | 
2 | CCCCC(Br)C(=O)O (stereo not drawn) [2-Bromohexanoic acid, reference compound] | 710 µg/mL (≈ 3640 µM) | ≥ 710 µg/mL | 355 µg/mL (≈ 1820 µM) | 710 µg/mL (≈ 3640 µM) |  |  |  |  |  | 
3 | CCCCCCCCCCC(Br)C(=O)O (stereo not drawn) [2-Bromolauric acid, reference compound] |  |  | 19 µg/mL (≈ 68 µM) | 78 µg/mL (≈ 279 µM) | 155 µg/mL (≈ 555 µM) | 155 µg/mL (≈ 555 µM) |  |  |  | 
4 | CCCCCCCCCCCCC(Br)C(=O)O (stereo not drawn) [2-Bromomyristic acid, reference compound] |  |  | 15 µg/mL (≈ 48.8 µM) | 68 µg/mL (≈ 221 µM) | > 540 µg/mL | 12 µg/mL (≈ 39.1 µM) |  |  |  | 
5 | CC(Br)C(=O)Cl (stereo not drawn) [2-Bromopropionyl chloride, reference compound] |  |  | 117 µg/mL | 468 µg/mL | 468 µg/mL | 468 µg/mL |  |  |  | 
6 | CCCC(Br)C(=O)O (stereo not drawn) [2-Bromovaleric acid, reference compound] |  |  | 290 µg/mL (≈ 1600 µM) | ≥ 578 µg/mL | 578 µg/mL (≈ 3190 µM) | ≥ 578 µg/mL |  |  |  | 
7 | OCCCCCCCCCCCBr [11-Bromoundecanol, reference compound] |  |  | 12 µg/mL (≈ 47.8 µM) | 24 µg/mL (≈ 95.5 µM) | 95 µg/mL (≈ 378 µM) |  |  |  |  | 
8 | C[C@@H]1[C@H](O)[C@@H](C)/C=C/C=C/C=C/C=C/C=C/C=C/C=C/[C@H](O[C@@H]2O[C@H](C)[C@@H](O)[C@H](N)[C@@H]2O)C[C@@H]2O[C@](O)(C[C@@H](O)C[C@@H](O)[C@H](O)CC[C@@H](O)C[C@@H](O)CC(=O)O[C@H]1C)C[C@H](O)[C@H]2C(=O)O [AMB, amphotericin B, reference compound] |  |  |  |  |  |  | 1.5 µg/mL (≈ 1.62 µM) | 0.7 µg/mL (≈ 0.758 µM) | 0.4 µg/mL (≈ 0.433 µM) | 
9 | CC(=O)O [Acetic acid, reference compound] |  |  | ≥ 220 µg/mL | ≥ 220 µg/mL | ≥ 220 µg/mL | ≥ 220 µg/mL |  |  |  | 
10 | Fc1ccc(C(Br)(Cn2cncn2)Cn2cncn2)c(F)c1 [Br] |  |  | 22 µg/mL (≈ 59.6 µM) | 701 µg/mL (≈ 1900 µM) | > 701 µg/mL | 701 µg/mL (≈ 1900 µM) |  |  |  | 
11 | Fc1ccc(C(Cl)(Cn2cncn2)Cn2cncn2)c(F)c1 [Cl] |  |  | 28 µg/mL (≈ 86.2 µM) | 883 µg/mL (≈ 2720 µM) | > 883 µg/mL | 1140 µg/mL (≈ 3500 µM) |  |  |  | 
12 | CCCCCCCCCCCO [Compound 1-Undecanol, 1-Undecanol, reference compound] |  |  | 28 µg/mL (≈ 162 µM) | 87 µg/mL (≈ 505 µM) | 87 µg/mL (≈ 505 µM) |  |  |  |  | 
13 | CC(=O)OC(Cn1cncn1)(Cn1cncn1)c1ccc(F)cc1F [Compound 1a, O-Acetylfluconazole] |  |  |  |  |  |  | 1,420 μg/mL | >1,420 μg/mL | ≧1,420 μg/mL | >1,420 μg/mL
14 | CCCCCCCCCCCCCC(=O)OC(Cn1cncn1)(Cn1cncn1)c1ccc(F)cc1F [Compound 1b, O-Tetradecanoylfluconazole] |  |  |  |  |  |  | 718 µg/mL (≈ 1390 µM) | 718 µg/mL (≈ 1390 µM) | ≧718 μg/mL | 718 µg/mL (≈ 1390 µM)
15 | CC(Br)C(=O)OC(Cn1cncn1)(Cn1cncn1)c1ccc(F)cc1F (stereo not drawn) [Compound 1c, O-2-Bromopropionylfluconazole] |  |  |  |  |  |  | 656 µg/mL (≈ 1490 µM) | 656 µg/mL (≈ 1490 µM) | >656 µg/mL | 656 µg/mL (≈ 1490 µM)
16 | CCC(Br)C(=O)OC(Cn1cncn1)(Cn1cncn1)c1ccc(F)cc1F (stereo not drawn) [Compound 1d, O-2-Bromobutyrylfluconazole] |  |  |  |  |  |  | 636 µg/mL (≈ 1400 µM) | 319 µg/mL (≈ 701 µM) | ≧1,276 μg/mL | >1,276 μg/mL
17 | CCCC(Br)C(=O)OC(Cn1cncn1)(Cn1cncn1)c1ccc(F)cc1F (stereo not drawn) [Compound 1e, O-2-Bromovaleroylfluconazole] |  |  |  |  |  |  | 552 µg/mL (≈ 1180 µM) | 275 µg/mL (≈ 586 µM) | ≧1,100 μg/mL | 1,100 μg/mL
18 | CCCCC(Br)C(=O)OC(Cn1cncn1)(Cn1cncn1)c1ccc(F)cc1F (stereo not drawn) [Compound 1f, O-2-Bromohexanoylfluconazole] |  |  |  |  |  |  | 492 µg/mL (≈ 1020 µM) | 61 µg/mL (≈ 126 µM) | ≧979 μg/mL | 492 µg/mL (≈ 1020 µM)
19 | CCCCCCCCCCC(Br)C(=O)OC(Cn1cncn1)(Cn1cncn1)c1ccc(F)cc1F (stereo not drawn) [Compound 1h, O-2-Bromolauroylfluconazole] |  |  |  |  |  |  | 1,466 μg/mL | 1,466 μg/mL | ≧1,466 μg/mL | 1,466 μg/mL
20 | CC(=O)OC[C@H]1O[C@@H](OP(=O)(OCCC#N)OC(Cn2cncn2)(Cn2cncn2)c2ccc(F)cc2F)[C@H](OC(C)=O)[C@@H](OC(C)=O)[C@@H]1OC(C)=O (stereo partly drawn) [Compound 4a, 2-Cyanoethyl-[1-(β-D-2,3,4,6-glucosyltetraacetate)]fluconazole phosphate] |  |  |  |  |  |  | 1,999 μg/mL |  | 1,999 μg/mL | 551 µg/mL
21 | CC(=O)N[C@H]1[C@H](OP(=O)(OCCC#N)OC(Cn2cncn2)(Cn2cncn2)c2ccc(F)cc2F)O[C@H](COC(C)=O)[C@@H](OC(C)=O)[C@@H]1OC(C)=O (stereo partly drawn) [Compound 4b, 2-Cyanoethyl-[1-(2-acetamido-2-deoxy-3,4,6-tri-O-acetyl-β-D-glucopyranosidyl)]fluconazole phosphate] |  |  |  |  |  |  | >3,399 μg/mL |  | 1,699 μg/mL | 306 µg/mL
22 | CCCCCCCCCC(=O)O [Decanoic acid, reference compound] |  |  |  | < 12 µg/mL | 99 µg/mL (≈ 575 µM) | 791 µg/mL (≈ 4590 µM) |  |  |  | 
23 | Fc1ccc(C(S)(Cn2cncn2)Cn2cncn2)c(F)c1 [SH] |  |  | 339 µg/mL (≈ 1050 µM) | > 3730 µg/mL | 1860 µg/mL (≈ 5780 µM) |  |  |  |  | 
24 | CCCCCCCCCCCCCCO [Tetradecanol, reference compound] |  |  | 14 µg/mL (≈ 65.3 µM) | 27 µg/mL (≈ 126 µM) | 1720 µg/mL (≈ 8020 µM) |  |  |  |  | 
25 | C=CCCCCCCCCCO [ω-Undecylenyl alcohol, reference compound] |  |  |  |  |  |  | 110 µg/mL (≈ 646 µM) |  | 27 µg/mL (≈ 159 µM) | 14 µg/mL (≈ 82.2 µM)
